According to PubChem BioAssay (NCI):
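Compound exposure: 48 hours, 5 concentrations, 96-well plates. TGI denotes the concentration required for complete inhibition of growth.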

What was measured:
Experiment in all cases: inhibition of tumour cell growth, NCI panel, 48 h
CAKI-1 renal = test system: CAKI-1 renal
RXF 393 renal = test system: RXF 393 renal
SNB-19 CNS = test system: SNB-19 CNS
LOX IMVI melanoma = test system: LOX IMVI melanoma
EKVX NSCLC = test system: EKVX NSCLC
M14 melanoma = test system: M14 melanoma
SK-MEL-2 melanoma = test system: SK-MEL-2 melanoma
IGROV1 ovarian = test system: IGROV1 ovarian
UACC-62 melanoma = test system: UACC-62 melanoma
SR leukemia = test system: SR leukemia
CCRF-CEM leukemia = test system: CCRF-CEM leukemia
HL-60(TB) leukemia = test system: HL-60(TB) leukemia
HCC-2998 colon = test system: HCC-2998 colon
TK-10 renal = test system: TK-10 renal
UACC-257 melanoma = test system: UACC-257 melanoma
DU-145 prostate = test system: DU-145 prostate
T-47D breast = test system: T-47D breast
NCI-H460 lung = test system: NCI-H460 lung
MDA-MB-435 = test system: MDA-MB-435

SMILES | TGI (CAKI-1 renal) [µM] | TGI (RXF 393 renal) [µM] | TGI (SNB-19 CNS) [µM] | TGI (LOX IMVI melanoma) [µM] | TGI (EKVX NSCLC) [µM] | TGI (M14 melanoma) [µM] | TGI (SK-MEL-2 melanoma) [µM] | TGI (IGROV1 ovarian) [µM] | TGI (UACC-62 melanoma) [µM] | TGI (SR leukemia) [µM] | TGI (CCRF-CEM leukemia) [µM] | TGI (HL-60(TB) leukemia) [µM] | TGI (HCC-2998 colon) [µM] | TGI (TK-10 renal) [µM] | TGI (UACC-257 melanoma) [µM] | TGI (DU-145 prostate) [µM] | TGI (T-47D breast) [µM] | TGI (NCI-H460 lung) [µM] | TGI (MDA-MB-435) [µM]
O=C1CSC(Cc2nc3ccccc3[nH]2)=N1 | 31.4 | 33.1 | 80.8 | 37.3 | 75.6 | 33.4 | 38.4 | > 58.7 | 37.7 | 25.6 | > 94 | 97.5 | 36.3 | 48.1 | > 90.7 | – | – | – | –
CC(=O)c1sc2c(c1OC(=O)c1cccs1)c(=O)n(-c1ccccc1)c(=S)n2-c1ccccc1 | 61.1 | 18.6 | 44.8 | 17.2 | 51.1 | 10.6 | – | 35.4 | 37.9 | – | 22.6 | 52.2 | > 100 | 55.4 | 43.9 | 57.8 | > 100 | 25.3 | 20.8
O=C1C(Cl)C(c2ccccc2)N1n1cnc2ccccc2c1=O (stereo not drawn) | > 100 | > 100 | > 100 | > 100 | > 100 | > 100 | > 100 | > 100 | > 100 | > 100 | > 100 | > 100 | > 100 | > 100 | > 100 | – | – | > 100 | –
O=C(Nc1ccc([N+](=O)[O-])cc1)C1C(=O)C(=O)N(c2ccc([N+](=O)[O-])cc2)C1=O (stereo not drawn) | > 100 | > 100 | > 100 | 30.3 | > 100 | > 100 | > 100 | > 100 | 19.5 | > 100 | > 100 | > 100 | > 100 | > 100 | > 100 | – | – | > 100 | –
O=c1[nH]cc(COCC(F)(F)C(F)(F)C(F)(F)C(F)F)c(=O)[nH]1 | > 100 | > 100 | > 100 | > 100 | > 100 | > 100 | > 100 | > 100 | > 100 | > 100 | > 100 | > 100 | > 100 | > 100 | > 100 | – | – | – | –
CCOC(=O)C(N=Nc1ccc(S(N)(=O)=O)cc1)C(C)=O (stereo not drawn) | > 100 | > 100 | > 100 | > 100 | > 100 | > 100 | > 100 | > 100 | > 100 | > 100 | > 100 | > 100 | > 100 | > 100 | > 100 | – | – | > 100 | –
Cc1cn(C2CC(N(O)Cc3ccccc3)C(CO)O2)c(=O)[nH]c1=O (stereo not drawn) | – | > 100 | > 100 | > 100 | > 100 | > 100 | – | > 100 | > 100 | > 100 | > 100 | > 100 | > 100 | > 100 | > 100 | – | – | > 100 | –
COc1c(C)c2c(c(C)c1Cl)Oc1c(C=O)c(O)c(Cl)c(C)c1C(=O)O2 | > 100 | – | – | 90.7 | 46.2 | > 100 | – | 83.8 | 63 | 89.4 | 72.5 | 57.8 | 69.8 | > 100 | > 100 | – | – | > 100 | –
CC1=C(C(=O)Nc2c(C)cccc2C)C(c2ccccc2Cl)C(C(=O)Nc2c(C)cccc2C)=C(C)N1 | > 100 | > 100 | > 100 | > 100 | > 100 | > 100 | > 100 | > 100 | – | – | > 100 | > 100 | > 100 | > 100 | > 100 | – | – | > 100 | –
CC12CCC(C(=O)OC1=O)C2(C)C (stereo not drawn) | – | > 100 | > 100 | > 100 | – | > 100 | > 100 | > 100 | > 100 | 64.3 | > 100 | > 100 | > 100 | > 100 | > 100 | > 100 | > 100 | > 100 | > 100
COC(=O)C(=C/c1ccc(OC)cc1)/C(C(=O)O)=C(/C)c1ccccc1 | > 100 | > 100 | > 100 | > 100 | > 100 | > 100 | > 100 | > 100 | > 100 | > 100 | > 100 | > 100 | > 100 | > 100 | > 100 | – | – | > 100 | –
COc1cc2c(cc1OCc1ccccc1)CNCC2 | > 100 | > 100 | > 100 | > 100 | > 100 | > 100 | > 100 | > 100 | > 100 | – | > 100 | > 100 | > 100 | > 100 | > 100 | – | – | > 100 | –
CC(C)(C)C(=O)/C=C/c1ccc(Oc2ccccc2)cc1 | – | 52.8 | 68.1 | – | 39.1 | 34.5 | 37.9 | > 100 | – | – | 40.5 | – | > 100 | 59.7 | 42.6 | – | – | 43.9 | –
C/C(=C1/CCCC2(N=NCC2c2ccccc2)C1=O)c1ccccc1 (stereo not drawn) | – | 79.5 | > 100 | > 100 | > 100 | 29 | 42.1 | > 100 | 47.7 | 51.2 | 66.1 | 25.6 | > 100 | > 100 | 52.7 | – | – | > 100 | –
O=C1c2cc3c(cc2CC12Cc1cc4c(cc1C2=O)CCC4)CCCC3 (stereo not drawn) | > 100 | > 100 | > 100 | > 100 | > 100 | > 100 | > 100 | > 100 | – | > 100 | > 100 | > 100 | > 100 | > 100 | > 100 | > 100 | > 100 | > 100 | > 100
